Some test systems named below: Escherichia coli UB1005; Bacillus cereus C737; Acinetobacter baumannii; Escherichia coli; Campylobacter jejuni; Escherichia coli K-12; Klebsiella pneumoniae; Staphylococcus aureus.
What all share (test): ≥ marks a high value that may be exact or a test limit, other limits are often not marked, values filed in µg/mL are converted to µM
Assay [1] deals with Escherichia coli ATCC 35218.
For assay [2], the system named is Salmonella enterica subsp. enterica serovar Typhimurium ATCC 14028.
The test system of assay [3] is Salmonella enterica subsp. enterica serovar Typhi Vi+.
Assay [4] concerns Escherichia coli ATCC 11775.
In assay [5] the test system is Escherichia coli ATCC 25922.
Assay [6] concerns Staphylococcus aureus USA 300.
Assay [7] deals with Pseudomonas aeruginosa PAO1.
The test system of assay [8] is Staphylococcus aureus CGMCC 1.8721.
Assay [9] has as its system Klebsiella pneumoniae CGMCC 1.1736.
Assay [10] relates to Bacillus subtilis CGMCC 1.3376.
The subject of assay [11] is Pseudomonas aeruginosa CGMCC 1.2421.
Assay [12] has as its system Staphylococcus epidermidis CGMCC 1.4260.
Assay [13] concerns Escherichia coli CGMCC 1.8732.
The test system of assay [14] is Acinetobacter baumannii Q13-0717.
Assay [15] relates to Acinetobacter baumannii Q12-0867.
Assay [16] concerns Staphylococcus aureus MRSA-15.
Assay [17] has as its system Staphylococcus aureus RN4220.
Assay [18] deals with Acinetobacter baumannii Q12-0809.
Assay [19] concerns Campylobacter jejuni NCTC 11351.
The test system of assay [20] is Klebsiella pneumoniae NCTC 13442.
In assay [21] the test system is Enterococcus faecalis JH-2-2.
Assay [22] concerns Salmonella typhimurium SL1344.
In assay [23] the test system is Pseudomonas aeruginosa Q12-0581.
Assay [24] deals with Staphylococcus aureus ATCC 29213.
For assay [25], the system named is Pseudomonas aeruginosa Q14-0890.
In assay [26] the test system is Klebsiella pneumoniae ATCC 700603.
Assay [27] relates to Klebsiella pneumoniae Q14-0285.
Assay [28] relates to Pseudomonas aeruginosa Q14-0208.
In assay [29] the test system is Staphylococcus aureus NCTC 12493.
Assay [30] concerns Klebsiella pneumoniae Q14-0095.
Assay [31] relates to Pseudomonas aeruginosa ATCC 27853.
Assay [32] concerns Listeria monocytogenes NCTC 11994.
In assay [33] the test system is Staphylococcus aureus Q14-0320.
Assay [34] has as its system Staphylococcus aureus NCTC 8325-4.
Assay [35] concerns Pseudomonas aeruginosa PA-W14.
Assay [36] relates to Pseudomonas aeruginosa PA-W1.

Structures are written as SMILES. Values after ≈ are worked out from the molar mass of the structure shown. A value given as a limit tells only on which side of the number the result lay.

One may read the MIC as the least concentration at which growth counts as inhibited. High values mean a need for much substance, low ones inhibition by little substance. As to `CC[C@H](C)[C@H](NC(=O)[C@@H]1CCCN1C(=O)[C@H](CCCN=C(N)N)NC(=O)[C@@H]1CCCN1C(=O)[C@H](Cc1cnc[nH]1)NC(=O)[C@H](CO)NC(=O)[C@H](CO)NC(=O)[C@@H]1CCCN1C(=O)[C@H](CCCN=C(N)N)NC(=O)[C@@H]1CCCN1C(=O)[C@H](CO)NC(=O)[C@H](Cc1ccc(O)cc1)NC(=O)[C@@H]1CCCN1C(=O)[C@H](CCCN=C(N)N)NC(=O)[C@@H]1CCCN1C(=O)[C@H](CCCCN)NC(=O)CN)C(=O)N[C@@H](CCCN=C(N)N)C(=O)N[C@H](C(=O)O)C(C)C` [GKPRPYSPRPSSHPRPIRV], the MIC in assay [1] was found to be 0.2 µM (≈ 0.437 µg/mL); in assay [2] it was 2 µM (≈ 4.37 µg/mL); in [3], 3 µM (≈ 6.55 µg/mL); in assay [4], 0.6 µM (≈ 1.31 µg/mL); in assay [5], 0.4 µM (≈ 0.874 µg/mL).

Consider `CC[C@H](C)[C@H](NC(=O)[C@H](CC(=O)O)NC(=O)[C@H](Cc1ccccc1)NC(=O)[C@H](CC(C)C)NC(=O)CN)C(=O)N[C@H](C(=O)N[C@@H](CCCCN)C(=O)N[C@@H](CCCCN)C(=O)N[C@H](C(=O)N[C@H](C(=O)NCC(=O)N[C@@H](C)C(=O)N[C@@H](CC(C)C)C(N)=O)C(C)C)C(C)C)C(C)C` [GLFDIVKKVVGAL], for which the MIC in assay [6] was 11.8 µM (≈ 16 µg/mL); in the assay on Escherichia coli UB1005, 23.6 µM (≈ 32 µg/mL); in [7] it was > 94.2 µM; against Bacillus cereus C737, ≥ 47.1 µM.

As to `CC[C@H](C)[C@H](NC(=O)[C@H](CO)NC(=O)CNC(=O)[C@@H](NC(=O)[C@@H](N)CCCN=C(N)N)[C@@H](C)CC)C(=O)N[C@@H](CC(C)C)C(=O)NCC(=O)N[C@@H](CCCN=C(N)N)C(=O)N[C@@H](CC(C)C)C(=O)N[C@@H](C)C(=O)N[C@@H](CCCCN)C(=O)NCC(=O)N[C@@H](CC(C)C)C(=O)N1CCC[C@H]1C(=O)N[C@H](C(=O)N[C@@H](CC(C)C)C(=O)N[C@@H](CCCCN)C(=O)N[C@@H](CO)C(=O)N[C@@H](Cc1c[nH]c2ccccc12)C(=O)N[C@H](C(=O)N[C@@H](CCCCN)C(=O)N[C@@H](CC(N)=O)C(=O)N[C@@H](CCCN=C(N)N)C(N)=O)[C@@H](C)CC)[C@@H](C)O` [RIGSILGRLAKGLPTLKSWIKNR], the MIC was ≥ 100 µM in assay [8]; 12.5 µM (≈ 32.2 µg/mL) in assay [9]; 12.5 µM (≈ 32.2 µg/mL) in assay [10]; 12.5 µM (≈ 32.2 µg/mL) with Acinetobacter baumannii; 12.5 µM (≈ 32.2 µg/mL) in [11]; 6.25 µM (≈ 16.1 µg/mL) in [12]. In [13], this molecule showed an MIC of 12.5 µM (≈ 32.2 µg/mL).

For the molecule `CC(C)C[C@H](NC(=O)[C@H](Cc1cnc[nH]1)NC(=O)[C@H](Cc1ccccc1)NC(=O)[C@H](Cc1ccccc1)NC(=O)[C@H](CCCN=C(N)N)NC(=O)[C@H](CCCCN)NC(=O)[C@H](CO)NC(=O)[C@H](CCCN=C(N)N)NC(=O)[C@H](Cc1cnc[nH]1)NC(=O)[C@H](CC(C)C)NC(=O)[C@H](Cc1ccccc1)NC(=O)[C@H](CCCCN)NC(=O)[C@H](CCCN=C(N)N)NC(=O)[C@H](Cc1ccc(O)cc1)NC(=O)CNC(=O)[C@@H](NC(=O)[C@H](Cc1cnc[nH]1)NC(=O)[C@H](CC(C)C)NC(=O)[C@@H](N)C(C)C)[C@@H](C)O)C(=O)N[C@@H](CCCN=C(N)N)C(=O)O` [VLHTGYRKFLHRSKRFFHLR], the MIC was ≥ 49.2 µM in assay [14]; 24.6 µM (≈ 64 µg/mL) in assay [15]; ≥ 49.2 µM in assay [16]; ≥ 49.2 µM in assay [17]; > 49.2 µM in the assay on Escherichia coli; 12.3 µM (≈ 32 µg/mL) in [18]. Also, the MIC was ≥ 49.2 µM in assay [19]; ≥ 49.2 µM in [20]; 197 µM (≈ 512 µg/mL) in assay [7]; 24.6 µM (≈ 64 µg/mL) in assay [21]; 12.3 µM (≈ 32 µg/mL) in assay [22]; ≥ 49.2 µM in assay [23]. The MIC was > 49.2 µM in assay [24]; 24.6 µM (≈ 64 µg/mL) in [25]; 49.2 µM (≈ 128 µg/mL) in [26]; 24.6 µM (≈ 64 µg/mL) in assay [27]; ≥ 49.2 µM in [28]; 12.3 µM (≈ 32 µg/mL) in assay [29]. In addition, the MIC in the assay with Campylobacter jejuni is ≥ 49.2 µM; in assay [30], ≥ 49.2 µM; in assay [31], > 49.2 µM; in assay [32], 24.6 µM (≈ 64 µg/mL); with Escherichia coli K-12, 24.6 µM (≈ 64 µg/mL); in assay [33], ≥ 49.2 µM.

As for `NCCCC[C@H](NC(=O)[C@H](Cc1c[nH]c2ccccc12)NC(=O)[C@H](Cc1c[nH]c2ccccc12)NC(=O)[C@H](CCCCN)NC(=O)[C@H](CCCCN)NC(=O)[C@H](Cc1c[nH]c2ccccc12)NC(=O)[C@H](Cc1c[nH]c2ccccc12)NC(=O)[C@H](CCCCN)NC(=O)[C@H](CCCCN)NC(=O)[C@@H](N)Cc1c[nH]c2ccccc12)C(N)=O` [WKKWWKKWWK], the MIC in assay [7] was 15.6 µM (≈ 24.8 µg/mL); in [34] it was 15.6 µM (≈ 24.8 µg/mL); in [35], ≥ 125 µM; against Klebsiella pneumoniae, 62.5 µM (≈ 99.3 µg/mL); against Staphylococcus aureus, 15.6 µM (≈ 24.8 µg/mL); against Escherichia coli K-12 it was 15.6 µM (≈ 24.8 µg/mL). In assay [36], this molecule had a minimum inhibitory concentration (MIC) of 31.3 µM (≈ 49.7 µg/mL).
